Reference: US12084435B2, “Pyridine ring-substituted pyridazinol compounds and derivatives, preparation methods, herbicidal compositions and applications thereof” (Qingdao Kingagroot Chemical Compound Co., Ltd., priority 2018, dated 2024)

Key:
[1] = tested on: monocotyledonous and dicotyledonous weed; assay: Post-emergence test, weed control effect (Tables 6 and 7); type: in vivo; parameters: key: 10: completely dead; above 90% growth inhibition rate; above 80% growth inhibition rate; above 70% growth inhibition rate; above 60% growth inhibition rate; above 50% growth inhibition rate; above 40% growth inhibition rate; above 30% growth inhibition rate; above 20% growth inhibition rate; 1: below 20% growth inhibition rate; 0: no effect; conditions: for weed control effect (activity level), Amaranthus retroflexus / weed control effect (activity level), Chenopodiaceae / weed control effect (activity level), Rorippa indica / weed control effect (activity level), Veronica polita: after 3 weeks; for comparison experiment (activity level), Digitaria sanguinalis / comparison experiment (activity level), Echinochloa crus-galli / comparison experiment (activity level), Galium aparine / comparison experiment (activity level), Rorippa indica / comparison experiment (activity level), Setaria viridis / comparison experiment (activity level), Veronica polita: Dose 300 g/ha
Method: The above described growth inhibition rates are fresh weight inhibition rates. Experiment of post-emergence test: monocotyledonous and dicotyledonous weed seeds as well as main crop seeds (i.e., wheat, corn, rice, soybean, cotton, oilseed rape, millet and sorghum) were put into aplastic pot loaded with soil, then covered with 0.5-2 cm of soil, and the seeds were allowed to grow in good greenhouse environment. The test plants were treated at 4-5 leaf stage 2-3 week […] sowing. The test compounds of the invention were dissolved in acetone respectively, then added with Tween-80 and diluted by a certain amount of water to give solutions with certain concentrations. The solution was sprayed to the plants with as prayer. The plants were cultured for 3 weeks in the greenhouse.

[2] = tested on: Echinochloa crusgalli, Scirpus juncoides, Sagittaria trifolia L. and Bidens tripartite; assay: Resistance tests of the collected rice-field weeds; type: in vivo; conditions: common rate; weed seeds collected from Heilongjiang Province of China
Description: Note: The seeds of Echinochloa crusgalli, Scirpus juncoides, Sagittaria trifolia L. and Bidens tripartite were collected from Heilongjiang Province of China.

SMILES	weed control effect (activity level), Amaranthus retroflexus ([1]; Dose 2000 g/ha)	weed control effect (activity level), Chenopodiaceae ([1]; Dose 2000 g/ha)	weed control effect (activity level), Rorippa indica ([1]; Dose 2000 g/ha)	weed control effect (activity level), Veronica polita ([1]; Dose 2000 g/ha)	also measured
Oc1cc(Cl)nnc1-c1ccc(Cl)cn1 [Compound 3-7]	10	10	10	10	
Oc1cc(Cl)nnc1-c1ccc(F)c(F)n1 [Compound 3-18]	10	10	10	10	
Oc1cc(Cl)nnc1-c1cccnc1Cl [Compound 1-6]	10	10	10	7 (above 70% growth inhibition rate)	
Oc1cc(Cl)nnc1-c1ccc(Br)nc1 [Compound 1-11]	10	10	10	10	
Oc1cc(Cl)nnc1-c1cnc(F)c(F)c1 [Compound 1-60]	10	10	10	7 (above 70% growth inhibition rate)	
Oc1cc(Cl)nnc1-c1cc(F)cnc1F [Compound 1-58]	10	10	10	10	
Oc1cc(Cl)nnc1-c1cc(F)nc(Cl)c1 [Compound 2-23]					weed control effect (activity level), Amaranthus retroflexus ([1]; Dose 1000 g/ha): 10; weed control effect (activity level), Chenopodiaceae ([1]; Dose 1000 g/ha): 10; weed control effect (activity level), Rorippa indica ([1]; Dose 1000 g/ha): 10; weed control effect (activity level), Veronica polita ([1]; Dose 1000 g/ha): 10
Oc1cc(Cl)nnc1-c1cc(F)ncc1F [Compound 2-11]					weed control effect (activity level), Amaranthus retroflexus ([1]; Dose 1000 g/ha): 10; weed control effect (activity level), Chenopodiaceae ([1]; Dose 1000 g/ha): 10; weed control effect (activity level), Rorippa indica ([1]; Dose 1000 g/ha): 10; weed control effect (activity level), Veronica polita ([1]; Dose 1000 g/ha): 10
Oc1cc(Cl)nnc1-c1ccc(F)nc1 [Compound 1-3]	10	10	10	10	
Oc1cc(Cl)nnc1-c1ccc(Cl)nc1Cl [Compound 1-63]	10	10	10	10	
Oc1cc(Cl)nnc1-c1ccnc(F)c1 [Compound 2-3]					comparison experiment (activity level), Digitaria sanguinalis [1]: 10; comparison experiment (activity level), Echinochloa crus-galli [1]: 10; comparison experiment (activity level), Galium aparine [1]: 10; comparison experiment (activity level), Rorippa indica [1]: 10; comparison experiment (activity level), Setaria viridis [1]: 10; comparison experiment (activity level), Veronica polita [1]: 10; weed control effect (activity level), Amaranthus retroflexus ([1]; Dose 1000 g/ha): 10; weed control effect (activity level), Chenopodiaceae ([1]; Dose 1000 g/ha): 10; weed control effect (activity level), Rorippa indica ([1]; Dose 1000 g/ha): 10; weed control effect (activity level), Veronica polita ([1]; Dose 1000 g/ha): 10
Oc1cc(Cl)nnc1-c1ccc(F)cn1 [Compound 3-3]	10	10	10	10	
Oc1cc(Cl)nnc1-c1cccnc1 [Compound 1-1]	10	10	10	10	comparison experiment (activity level), Digitaria sanguinalis [1]: 7 (above 70% growth inhibition rate); comparison experiment (activity level), Echinochloa crus-galli [1]: 8 (above 80% growth inhibition rate); comparison experiment (activity level), Galium aparine [1]: 9 (above 90% growth inhibition rate); comparison experiment (activity level), Rorippa indica [1]: 10; comparison experiment (activity level), Setaria viridis [1]: 10; comparison experiment (activity level), Veronica polita [1]: 9 (above 90% growth inhibition rate)
CCOC(=O)c1cnn(C)c1S(=O)(=O)NC(=O)Nc1nc(OC)cc(OC)n1 [pyrazosulfuron-ethyl]					resistance of the weeds to the herbicide [2]: resistant
Oc1cc(Cl)nnc1-c1cc(F)c(F)nc1F [Compound 1-105]	10	10	10	10	
Oc1cc(Cl)nnc1-c1cc(Cl)ccn1 [Compound 3-8]	10	10	10	10	
Oc1cc(Cl)nnc1-c1ccnc(F)c1F [Compound 2-10]					weed control effect (activity level), Amaranthus retroflexus ([1]; Dose 1000 g/ha): 10; weed control effect (activity level), Chenopodiaceae ([1]; Dose 1000 g/ha): 10; weed control effect (activity level), Rorippa indica ([1]; Dose 1000 g/ha): 10; weed control effect (activity level), Veronica polita ([1]; Dose 1000 g/ha): 10
Oc1cc(Cl)nnc1-c1cncc(Cl)c1 [Compound 1-8]	10	10	10	10	
Oc1cc(Cl)nnc1-c1cc(F)nc(F)c1 [Compound 2-13]					weed control effect (activity level), Amaranthus retroflexus ([1]; Dose 1000 g/ha): 10; weed control effect (activity level), Chenopodiaceae ([1]; Dose 1000 g/ha): 10; weed control effect (activity level), Rorippa indica ([1]; Dose 1000 g/ha): 10; weed control effect (activity level), Veronica polita ([1]; Dose 1000 g/ha): 10
Oc1cc(Cl)nnc1-c1ccc(C(F)(F)F)nc1 [Compound 1-23]	10	10	10	10	
Oc1cc(Cl)nnc1-c1cnccc1F [Compound 1-5]	10	10	10	10	
Oc1cc(Cl)nnc1-c1cc(F)cc(F)n1 [Compound 3-19]	10	10	10	10	
Oc1cc(Cl)nnc1-c1cccnc1F [Compound 1-2]	10	10	10	10	comparison experiment (activity level), Digitaria sanguinalis [1]: 8 (above 80% growth inhibition rate); comparison experiment (activity level), Echinochloa crus-galli [1]: 10; comparison experiment (activity level), Galium aparine [1]: 9 (above 90% growth inhibition rate); comparison experiment (activity level), Rorippa indica [1]: 10; comparison experiment (activity level), Setaria viridis [1]: 10; comparison experiment (activity level), Veronica polita [1]: 10
Oc1cc(Cl)nnc1-c1cncc(F)c1 [Compound 1-4]	10	10	10	10	comparison experiment (activity level), Digitaria sanguinalis [1]: 8 (above 80% growth inhibition rate); comparison experiment (activity level), Echinochloa crus-galli [1]: 8 (above 80% growth inhibition rate); comparison experiment (activity level), Galium aparine [1]: 10; comparison experiment (activity level), Rorippa indica [1]: 10; comparison experiment (activity level), Setaria viridis [1]: 10; comparison experiment (activity level), Veronica polita [1]: 10
Oc1cc(Cl)nnc1-c1ccc(Cl)c(F)n1 [Compound 3-30]	10	10	10	10	
Oc1cc(C(F)(F)C(F)(F)F)nnc1-c1ccc(F)nc1F [Compound 1-131]					weed control effect (activity level), Amaranthus retroflexus ([1]; Dose 3000 g/ha): 10; weed control effect (activity level), Chenopodiaceae ([1]; Dose 3000 g/ha): 10; weed control effect (activity level), Rorippa indica ([1]; Dose 3000 g/ha): 10; weed control effect (activity level), Veronica polita ([1]; Dose 3000 g/ha): 10
CCCCCCCCSC(=O)Oc1cc(Cl)nnc1-c1ccccc1 [Control Compound B, reference compound]					comparison experiment (activity level), Digitaria sanguinalis [1]: 0; comparison experiment (activity level), Echinochloa crus-galli [1]: 0; comparison experiment (activity level), Galium aparine [1]: 4 (above 40% growth inhibition rate); comparison experiment (activity level), Rorippa indica [1]: 3 (above 30% growth inhibition rate); comparison experiment (activity level), Setaria viridis [1]: 2 (above 20% growth inhibition rate); comparison experiment (activity level), Veronica polita [1]: 6 (above 60% growth inhibition rate)
Oc1cc(Cl)nnc1-c1ccnc(Cl)c1 [Compound 2-5]					weed control effect (activity level), Amaranthus retroflexus ([1]; Dose 1000 g/ha): 10; weed control effect (activity level), Chenopodiaceae ([1]; Dose 1000 g/ha): 10; weed control effect (activity level), Rorippa indica ([1]; Dose 1000 g/ha): 10; weed control effect (activity level), Veronica polita ([1]; Dose 1000 g/ha): 10
Cc1nc(F)ccc1-c1nnc(Cl)cc1O [Compound 1-90]	10	10	10	7 (above 70% growth inhibition rate)	
Oc1cc(Cl)nnc1-c1ccc(F)nc1F [Compound 1-57]	10	10	10	10	
